# Results reported in the supplement of paper PMC10307832.
# Tests used:
# Assay in all cases: relative viability (nuclei count vs DMSO), 5 days (fraction); higher = more cells survive
# Kobe2602 + Bortezomib = compound: C1=CC(=CC=C1NC(=S)NNC2=C(C=C(C=C2[N+](=O)[O-])C(F)(F)F)[N+](=O)[O-])F [Kobe2602] + CC(C)C[C@H](NC(=O)[C@H](Cc1ccccc1)NC(=O)c1cnccn1)B(O)O [Bortezomib] (partner 0.002 µM)
# Summary of the method: (§1)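 One day after seeding in 1536-well plates, lung cancer cell lines were dosed by pin tool. Dosing was either single-drug or a fixed anchor-drug dose plus five library-drug doses (not always all listed) in √10 steps. After 5 days, nuclei were stained in one fix-and-stain step and counted on 4× images, and relative viability is the nuclei count of treated wells over that of vehicle wells, given as the median of duplicate plates.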
# Zosuquidar + Vorinostat = compound: O[C@@H](COc1cccc2ncccc12)CN1CCN([C@@H]2c3ccccc3[C@@H]3[C@H](c4ccccc42)C3(F)F)CC1 [Zosuquidar] + O=C(CCCCCCC(=O)Nc1ccccc1)NO [Vorinostat] (partner 1 µM)
# Summary of the method: as §1
# [1] = compound: COc1cc2nccc(Oc3ccc(NC(=O)C4(C(=O)Nc5ccc(F)cc5)CC4)cc3)c2cc1OC [Cabozantinib] + Cc1cc(Nc2cc(N3CCN(C)CC3)nc(Sc3ccc(NC(=O)C4CC4)cc3)n2)n[nH]1 [Tozasertib] (partner 0.1 µM)
# Summary of the method: as §1
# Kobe2602 + Foretinib = compound: C1=CC(=CC=C1NC(=S)NNC2=C(C=C(C=C2[N+](=O)[O-])C(F)(F)F)[N+](=O)[O-])F [Kobe2602] + COc1cc2c(Oc3ccc(NC(=O)C4(C(=O)Nc5ccc(F)cc5)CC4)cc3F)ccnc2cc1OCCCN1CCOCC1 [Foretinib] (partner 0.25 µM)
# Summary of the method: as §1
Cell Line,relative viability (Kobe2602 + Bortezomib; first compound 0.2 µM),relative viability (Kobe2602 + Bortezomib; first compound 0.6325 µM),relative viability (Kobe2602 + Bortezomib; first compound 2 µM),relative viability (Kobe2602 + Bortezomib; first compound 6.325 µM),relative viability (Kobe2602 + Bortezomib; first compound 20 µM),relative viability (Zosuquidar + Vorinostat; first compound 0.01 µM),relative viability (Zosuquidar + Vorinostat; first compound 0.03162 µM),relative viability (Zosuquidar + Vorinostat; first compound 0.3162 µM),relative viability (Zosuquidar + Vorinostat; first compound 1 µM),relative viability ([1]; first compound 0.02 µM),relative viability ([1]; first compound 0.06325 µM),relative viability ([1]; first compound 0.2 µM),relative viability ([1]; first compound 0.6325 µM),relative viability ([1]; first compound 2 µM),relative viability (Kobe2602 + Foretinib; first compound 0.2 µM),relative viability (Kobe2602 + Foretinib; first compound 0.6325 µM),relative viability (Kobe2602 + Foretinib; first compound 2 µM),relative viability (Kobe2602 + Foretinib; first compound 6.325 µM),relative viability (Kobe2602 + Foretinib; first compound 20 µM),relative viability (Zosuquidar + Vorinostat; first compound 0.1 µM)
LCLC-97TM1,0.691,0.757,0.501,0.611,0.526,0.663,0.929,0.73,0.777,0.288,0.27,0.252,0.217,0.282,0.834,0.928,1.01,0.956,0.924,–
LCLC-103H,1.15,1.11,1.04,1.13,1.01,0.754,0.771,0.848,0.803,0.552,0.471,0.474,0.486,0.391,0.82,0.905,0.751,0.832,0.723,0.598
LOU-NH91,0.518,0.454,0.469,0.478,0.527,0.854,0.917,0.941,0.919,0.677,0.729,–,0.724,0.75,0.95,0.964,0.954,0.9,0.92,0.772
LU99A,1.13,1.39,1.12,1.17,1.22,0.476,0.423,0.618,0.544,0.27,0.245,0.258,0.255,0.224,0.803,0.874,0.806,0.822,0.769,0.463
LXF-289,0.968,1.05,0.955,0.97,0.988,0.727,0.759,0.788,0.78,0.206,0.198,0.171,0.218,0.208,0.959,0.943,0.984,0.941,1.01,0.72
NCI-H23,1.01,1.11,0.973,0.998,1.09,0.536,–,0.695,0.662,–,0.47,0.387,0.325,0.292,1.02,0.977,0.896,1.12,1,0.57
NCI-H322M,1.23,1.23,1.28,1.2,1.21,0.916,1.08,0.896,0.731,0.488,0.511,0.425,0.439,0.436,0.971,0.98,0.923,0.959,0.963,0.652
NCI-H441,0.549,0.582,0.527,0.575,0.687,0.666,0.97,0.867,0.962,0.646,0.72,0.673,0.509,0.649,0.884,0.901,0.978,1.02,0.914,0.728
NCI-H460,0.99,1.09,1.09,1.21,1.05,0.658,0.747,0.776,0.739,0.574,0.57,0.447,0.356,0.0953,1.07,1,0.978,1.02,0.999,0.687
NCI-H520,0.612,0.713,0.511,0.593,0.537,0.639,0.51,0.664,0.835,0.52,0.442,0.432,0.392,0.386,0.701,0.846,0.738,0.708,0.892,0.71
NCI-H596,1.08,1,1.08,0.987,0.965,0.555,0.637,0.761,0.661,0.95,0.8,0.924,0.905,0.767,0.851,0.708,0.957,0.915,0.846,0.709
NCI-H647,0.911,1.22,0.889,0.882,0.938,0.623,0.593,0.814,0.518,0.483,0.195,0.421,0.334,0.203,1.13,1.29,1.16,1.17,1.12,0.667
NCI-H650,0.882,1.07,0.676,0.912,0.956,0.452,0.414,0.577,0.435,–,0.746,0.756,0.789,0.706,1.1,1.01,1.05,1.05,0.907,0.397
NCI-H661,0.936,0.83,0.78,0.796,0.755,0.802,0.834,0.828,0.778,0.374,0.361,0.388,0.393,0.375,0.869,1.01,0.99,1.02,1.03,0.763
NCI-H727,0.901,0.883,0.83,0.885,0.851,1.12,1.32,1.11,1.29,0.53,0.777,0.513,0.513,0.554,0.855,0.991,0.919,1.1,0.873,–
NCI-H838,0.748,0.924,0.99,0.749,0.725,0.744,0.793,0.755,0.806,0.314,0.296,0.288,0.259,0.219,0.934,1.13,0.93,0.971,1.03,0.791

Cell Line,relative viability (Kobe2602 + Bortezomib; first compound 0.2 µM),relative viability (Kobe2602 + Bortezomib; first compound 0.6325 µM),relative viability (Kobe2602 + Bortezomib; first compound 2 µM),relative viability (Kobe2602 + Bortezomib; first compound 6.325 µM),relative viability (Kobe2602 + Bortezomib; first compound 20 µM),relative viability (Zosuquidar + Vorinostat; first compound 0.01 µM),relative viability (Zosuquidar + Vorinostat; first compound 0.03162 µM),relative viability (Zosuquidar + Vorinostat; first compound 0.3162 µM),relative viability (Zosuquidar + Vorinostat; first compound 1 µM),relative viability ([1]; first compound 0.02 µM),relative viability ([1]; first compound 0.06325 µM),relative viability ([1]; first compound 0.2 µM),relative viability ([1]; first compound 0.6325 µM),relative viability ([1]; first compound 2 µM),relative viability (Kobe2602 + Foretinib; first compound 0.2 µM),relative viability (Kobe2602 + Foretinib; first compound 0.6325 µM),relative viability (Kobe2602 + Foretinib; first compound 2 µM),relative viability (Kobe2602 + Foretinib; first compound 6.325 µM),relative viability (Kobe2602 + Foretinib; first compound 20 µM),relative viability (Zosuquidar + Vorinostat; first compound 0.1 µM)
NCI-H1355,1.21,1.21,1.01,1.07,1.13,0.621,0.644,0.652,0.669,0.583,0.66,0.502,0.503,0.356,0.953,0.945,0.921,0.933,0.95,0.602
NCI-H1437,0.595,0.48,0.562,0.392,0.451,0.849,0.957,0.857,0.832,0.413,0.454,0.411,0.428,0.347,1.28,1.28,1.15,1.23,1.09,0.851
NCI-H1650,0.232,0.192,0.207,0.192,0.207,0.584,0.587,0.665,0.546,0.384,0.612,0.356,0.34,0.244,0.998,1.31,0.962,1.09,1.59,0.532
NCI-H1651,0.924,0.961,0.956,0.94,1.01,0.576,0.604,0.607,0.501,0.861,0.739,0.754,0.706,0.48,0.764,0.89,0.762,0.776,0.868,0.471
NCI-H1666,0.919,0.728,–,0.737,0.867,1,0.868,1.04,1.03,0.628,0.644,0.622,0.619,0.673,0.961,0.952,0.973,0.963,1.04,1.01
NCI-H1734,1.06,0.963,0.872,1.01,0.952,0.764,0.832,0.839,0.887,0.292,0.284,0.275,0.286,0.214,0.843,0.938,0.978,0.901,0.855,0.883
NCI-H1755,1.04,0.971,0.895,0.96,1,0.657,0.883,0.845,0.729,0.673,0.666,0.618,0.529,0.539,0.948,0.914,0.915,0.879,0.868,0.694
NCI-H1915,1.01,0.998,0.958,0.99,0.931,0.536,0.512,0.57,0.549,0.46,0.447,0.471,0.435,0.416,1.11,1.09,1.08,1.02,1.06,0.457
NCI-H1975,0.363,0.392,0.297,0.365,0.358,0.745,0.681,0.746,0.751,0.761,0.78,0.699,0.435,0.295,0.99,0.915,0.788,0.823,0.931,0.75
NCI-H1993,0.978,1.09,0.897,0.985,1.02,0.958,0.603,0.835,0.885,0.546,0.625,0.565,0.572,0.542,0.789,0.748,0.689,0.687,0.642,–
NCI-H2009,0.961,1.11,0.97,1.04,0.949,0.688,0.658,0.773,0.664,0.827,0.889,0.768,0.699,0.668,1.15,1.32,1.21,1.19,1.19,0.654
NCI-H2023,0.954,0.995,0.873,0.945,0.927,0.529,0.837,0.732,0.541,0.401,0.437,0.301,0.232,0.15,0.931,0.803,0.825,0.931,0.933,0.596
NCI-H2085,1.07,1.08,0.99,1.07,1.11,0.807,0.753,0.907,0.767,0.87,0.852,0.818,0.655,0.527,0.909,1.01,–,1.12,0.879,–
NCI-H2087,0.778,0.626,0.644,0.851,0.83,0.666,0.707,0.667,0.77,0.271,0.24,0.225,0.248,0.204,1.09,1.18,1.07,1.11,1.18,0.739
NCI-H2126,1.14,1.09,1.11,1.19,1.11,0.768,0.862,0.757,0.891,0.865,0.937,0.816,0.814,0.848,1.17,1.25,1.07,0.996,1.01,0.478
NCI-H2228,1.11,0.849,0.953,0.947,1.12,0.972,0.61,0.895,0.869,0.342,0.306,0.296,0.29,0.196,0.923,0.806,0.734,0.817,0.862,0.935
